Ends that are not written are not given here.
Columns and labels:
Assay in all cases: MIC, broth microdilution
[1] = tested on: Bacillus subtilis (KCTC 3068); type: cell-based; conditions: B. subtilis, 2 × 10^6 CFU/mL
[2] = tested on: S. aureus (KCTC 1621); type: cell-based, Staphylococcus aureus; conditions: 2 × 10^6 CFU/mL
[3] = tested on: Enterococcus faecalis (KCTC 2011); type: cell-based; conditions: E. faecalis, 2 × 10^6 CFU/mL
[4] = tested on: Staphylococcus epidermidis (KCTC 1917); type: cell-based; conditions: S. epidermidis, 2 × 10^6 CFU/mL
[5] = tested on: E. coli (KCTC 1682); type: cell-based, Escherichia coli; conditions: 2 × 10^6 CFU/mL
[6] = tested on: Salmonella typhimurium (KCTC 1926); type: cell-based; conditions: S. typhimurium, 2 × 10^6 CFU/mL
[7] = tested on: Pseudomonas aeruginosa (KCTC 1637); type: cell-based; conditions: P. aeruginosa, 2 × 10^6 CFU/mL
[8] = tested on: Proteus vulgaris (KCTC 2433); type: cell-based; conditions: P. vulgaris, 2 × 10^6 CFU/mL
[9] = in the presence of 16 μM R9 (+R9)

Row | Molecule | antimicrobial activity (MIC) ([1]; peptide alone (−R9)) | antimicrobial activity (MIC) ([2]; peptide alone (−R9)) | antimicrobial activity (MIC) ([3]; peptide alone (−R9)) [µM] | antimicrobial activity (MIC) ([4]; peptide alone (−R9)) [µM] | antimicrobial activity (MIC) ([5]; peptide alone (−R9)) [µM] | antimicrobial activity (MIC) ([6]; peptide alone (−R9)) | antimicrobial activity (MIC) ([7]; peptide alone (−R9)) | antimicrobial activity (MIC) ([8]; peptide alone (−R9)) | antimicrobial activity (MIC) [1, 9] | antimicrobial activity (MIC) [2, 9] | antimicrobial activity (MIC) [3, 9] [µM] | antimicrobial activity (MIC) [4, 9] [µM] | antimicrobial activity (MIC) [5, 9] [µM] | antimicrobial activity (MIC) [6, 9] | antimicrobial activity (MIC) [7, 9] | antimicrobial activity (MIC) [8, 9]
1 | RRRRRRRRRGGGGIGKWLHSAKKFGKAFVGEIMNS-NH2 [R9-magainin] | 2 to 4 µM | 8 µM | 4 | 4 to 8 | 2 to 4 | 1 to 2 µM | 4 µM | 4 to 8 µM | – | – | – | – | – | – | – | –
2 | KWKKLLKKLLKLLKK-NH2 [M15] | 8–16/8–16 μM | 8/8 μM | 16 | 16 to 32 | 16 to 32 | 32/32 μM | 32/32 μM | 32/32 μM | 8–16/8–16 μM | 8/8 μM | 8 | 16 | 16 | 32/32 μM | 32/32 μM | 32/32 μM
3 | N=C(N)NCCC[C@H](NC(=O)[C@H](CCCNC(=N)N)NC(=O)[C@H](CCCNC(=N)N)NC(=O)[C@H](CCCNC(=N)N)NC(=O)[C@H](CCCNC(=N)N)NC(=O)[C@H](CCCNC(=N)N)NC(=O)[C@H](CCCNC(=N)N)NC(=O)[C@H](CCCNC(=N)N)NC(=O)[C@@H](N)CCCNC(=N)N)C(N)=O [R9] | > 128 µM | – | – | – | – | – | – | – | – | – | – | – | – | – | – | –
